Laboratory results published in ChEMBL document CHEMBL1201862, “PubChem BioAssay data set” (2004).
“And” between values parts separate entries of the source, which are not always exact repeats. Equal values may be shown once.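 Interpolation was linear, between the two tested concentrations surrounding the appropriate level; five concentrations were tested over 48 hours in 96-well plates. GI50 = concentration required for 50% inhibition of growth.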 The source made the active and inactive calls. No stated cut-off is given here; in the data, active = GI50 up to about 1.1 µM and inactive = higher.

Key:
Assay in all cases: NCI-60 cell line screen, 48 h
DMS-114 = system: DMS-114
DU-145 = system: DU-145
HOP-62 = system: HOP-62
Hs-578T = system: Hs-578T
MCF7 = system: MCF7
MDA-MB-231 = system: MDA-MB-231
MDA-N = system: MDA-N
NCI/ADR-RES = system: NCI/ADR-RES
PC-3 = system: PC-3
RXF 631 = system: RXF 631
SK-OV-3 = system: SK-OV-3
T47D = system: T47D
786-0 = system: 786-0
A498 = system: A498
A549 = system: A549
ACHN = system: ACHN
CCRF-CEM = system: CCRF-CEM
COLO 205 = system: COLO 205
DLD-1 = system: DLD-1
DMS-273 = system: DMS-273
EKVX = system: EKVX
HCC 2998 = system: HCC 2998
HCT-116 = system: HCT-116
HCT-15 = system: HCT-15
HL-60 = system: HL-60
HOP-18 = system: HOP-18
HOP-92 = system: HOP-92
HT-29 = system: HT-29
IGROV-1 = system: IGROV-1
K562 = system: K562
KM-20L2 = system: KM-20L2
KM12 = system: KM12
LOX IMVI = system: LOX IMVI
LXFL 529 = system: LXFL 529
M14 = system: M14
MOLT-4 = system: MOLT-4
Malme-3M = system: Malme-3M
NCI-H23 = system: NCI-H23
NCI-H460 = system: NCI-H460
NCI-H522 = system: NCI-H522
OVCAR-3 = system: OVCAR-3
OVCAR-4 = system: OVCAR-4
OVCAR-5 = system: OVCAR-5
OVCAR-8 = system: OVCAR-8
RPMI-8226 = system: RPMI-8226
RXF 393 = system: RXF 393
SF-268 = system: SF-268
SF-295 = system: SF-295
SF-539 = system: SF-539
SK-MEL-28 = system: SK-MEL-28
SK-MEL-2 = system: SK-MEL-2
SN12C = system: SN12C
SNB-19 = system: SNB-19
SNB-78 = system: SNB-78
SW-620 = system: SW-620
TK-10 = system: TK-10
U-251 = system: U-251
UACC-257 = system: UACC-257
UACC-62 = system: UACC-62
UO-31 = system: UO-31
CAKI-1 = system: CAKI-1
M19-MEL = system: M19-MEL
NCI-H226 = system: NCI-H226
SK-MEL-5 = system: SK-MEL-5
SNB-75 = system: SNB-75
XF498 = system: XF498

With CC1(C)CC[C@H](C2=CC(=O)c3c(O)ccc(O)c3C2=O)O1 the GI50 (DMS-114) was 359 nM (active) and 200 nM (active), the GI50 (DU-145) was 2.4 µM (inactive) and 2.09 µM (inactive) and the GI50 (HOP-62) was 4.61 µM (inactive) and 2.72 µM (inactive). For the same compound, the GI50 (Hs-578T) was 2.64 µM (inactive) and 2.74 µM (inactive), the GI50 (MCF7) was 173 nM (active) and 216 nM (active) and the GI50 (MDA-MB-231) was 2.44 µM (inactive) and 1.48 µM (inactive). The GI50 (MDA-N) was 577 nM (active) and 904 nM (active), the GI50 (NCI/ADR-RES) was 2790 nM (inactive) and the GI50 (PC-3) was 2.86 µM (inactive) and 1.71 µM (inactive). For the same compound, the GI50 (RXF 631) was 1150 nM (inactive), the GI50 (SK-OV-3) was 8.05 µM (inactive) and 4.24 µM (inactive) and the GI50 (T47D) was 460 nM (active) and 470 nM (active).

For C[N+](C)(C)CC1CCCC/C1=N\O (stereo not given), the GI50 (786-0) was > 100000 nM (inactive), the GI50 (A498) was > 100000 nM (inactive) and the GI50 (A549) was > 100000 nM (inactive). The GI50 (ACHN) was > 100000 nM (inactive), the GI50 (CCRF-CEM) was > 100000 nM (inactive) and the GI50 (COLO 205) was > 100000 nM (inactive). The GI50 (DLD-1) was > 100000 nM (inactive), the GI50 (DMS-114) was > 100 µM (inactive) and the GI50 (DMS-273) was > 100000 nM (inactive). The GI50 (EKVX) was > 100000 nM (inactive), the GI50 (HCC 2998) was > 100000 nM (inactive) and the GI50 (HCT-116) was > 100000 nM (inactive). For the same compound, the GI50 (HCT-15) was > 100000 nM, the GI50 (HL-60) was > 100000 nM (inactive) and the GI50 (HOP-18) was > 100000 nM (inactive). For the same compound, the GI50 (HOP-62) was > 100 µM (inactive), the GI50 (HOP-92) was > 100000 nM (inactive) and the GI50 (HT-29) was > 100000 nM (inactive). For the same compound, the GI50 (IGROV-1) was > 100000 nM (inactive), the GI50 (K562) was > 100000 nM (inactive) and the GI50 (KM-20L2) was > 100000 nM (inactive). The GI50 (KM12) was > 100000 nM (inactive), the GI50 (LOX IMVI) was > 100000 nM (inactive) and the GI50 (LXFL 529) was > 100000 nM (inactive). For the same compound, the GI50 (M14) was > 100000 nM (inactive), the GI50 (MOLT-4) was > 100000 nM (inactive) and the GI50 (Malme-3M) was > 100000 nM (inactive). The GI50 (NCI-H23) was > 100000 nM (inactive), the GI50 (NCI-H460) was > 100000 nM (inactive) and the GI50 (NCI-H522) was > 100000 nM (inactive). For the same compound, the GI50 (OVCAR-3) was > 100000 nM (inactive), the GI50 (OVCAR-4) was > 100000 nM (inactive) and the GI50 (OVCAR-5) was > 100000 nM (inactive). The GI50 (OVCAR-8) was > 100000 nM (inactive), the GI50 (RPMI-8226) was > 100000 nM (inactive) and the GI50 (RXF 393) was > 100000 nM (inactive). For the same compound, the GI50 (RXF 631) was > 100000 nM (inactive), the GI50 (SF-268) was > 100000 nM (inactive) and the GI50 (SF-295) was > 100000 nM (inactive). The GI50 (SF-539) was > 100000 nM (inactive), the GI50 (SK-MEL-28) was > 100000 nM (inactive) and the GI50 (SK-MEL-2) was > 100000 nM (inactive). For the same compound, the GI50 (SK-OV-3) was > 100 µM (inactive), the GI50 (SN12C) was > 100000 nM (inactive) and the GI50 (SNB-19) was > 100000 nM (inactive). For the same compound, the GI50 (SNB-78) was > 100000 nM (inactive), the GI50 (SW-620) was > 100000 nM (inactive) and the GI50 (TK-10) was > 100000 nM (inactive). For the same compound, the GI50 (U-251) was > 100000 nM (inactive), the GI50 (UACC-257) was > 100000 nM (inactive) and the GI50 (UACC-62) was > 100000 nM (inactive). For the same compound, the GI50 (UO-31) was > 100000 nM (inactive).

In the case of CC1=Nc2ccccc2SC(c2c(Cl)cccc2Cl)C1 (stereo not given), the GI50 (786-0) is reported as 454 nM (active), the GI50 (A498) is reported as 2120 nM (inactive) and the GI50 (A549) is reported as 1880 nM (inactive). For the same compound, the GI50 (ACHN) was 1710 nM (inactive), the GI50 (CAKI-1) was 2100 nM (inactive) and the GI50 (CCRF-CEM) was 304 nM (active). The GI50 (COLO 205) was 1580 nM (inactive), the GI50 (DLD-1) was 331 nM (active) and the GI50 (DMS-114) was 1.52 µM (inactive). For the same compound, the GI50 (DMS-273) was 792 nM (active), the GI50 (EKVX) was 2120 nM (inactive) and the GI50 (HCC 2998) was 1600 nM (inactive). For the same compound, the GI50 (HCT-116) was 225 nM (active), the GI50 (HCT-15) was 1190 nM and the GI50 (HL-60) was 341 nM (active). For the same compound, the GI50 (HOP-18) was 3510 nM (inactive), the GI50 (HOP-62) was 2.15 µM (inactive) and the GI50 (HOP-92) was 1820 nM (inactive). For the same compound, the GI50 (HT-29) was 397 nM (active), the GI50 (IGROV-1) was 1770 nM (inactive) and the GI50 (K562) was 327 nM (active). The GI50 (KM-20L2) was 1590 nM (inactive), the GI50 (KM12) was 828 nM (active) and the GI50 (LOX IMVI) was 277 nM (active). The GI50 (LXFL 529) was 500 nM (active), the GI50 (M14) was 1520 nM (inactive) and the GI50 (M19-MEL) was 1160 nM (inactive). The GI50 (MOLT-4) was 490 nM (active), the GI50 (Malme-3M) was 1610 nM (inactive) and the GI50 (NCI-H226) was 1510 nM (inactive). For the same compound, the GI50 (NCI-H23) was 1320 nM (inactive), the GI50 (NCI-H460) was 1140 nM (inactive) and the GI50 (NCI-H522) was 1220 nM (inactive). The GI50 (OVCAR-3) was 281 nM (active), the GI50 (OVCAR-4) was 1980 nM (inactive) and the GI50 (OVCAR-5) was 2390 nM (inactive). The GI50 (OVCAR-8) was 229 nM (active), the GI50 (RPMI-8226) was 314 nM (active) and the GI50 (RXF 393) was 1340 nM (inactive). The GI50 (SF-268) was 1010 nM (active), the GI50 (SF-295) was 1340 nM (inactive) and the GI50 (SF-539) was 993 nM (active). For the same compound, the GI50 (SK-MEL-28) was 1360 nM (inactive), the GI50 (SK-MEL-5) was 1490 nM (inactive) and the GI50 (SK-OV-3) was 2.45 µM (inactive). For the same compound, the GI50 (SN12C) was 1330 nM (inactive), the GI50 (SNB-19) was 1380 nM (inactive) and the GI50 (SNB-75) was 1910 nM (inactive). For the same compound, the GI50 (SNB-78) was 3310 nM (inactive), the GI50 (SW-620) was 430 nM (active) and the GI50 (TK-10) was 2220 nM (inactive). The GI50 (U-251) was 345 nM (active), the GI50 (UACC-257) was 1570 nM (inactive) and the GI50 (UACC-62) was 1250 nM (inactive). For the same compound, the GI50 (UO-31) was 1710 nM (inactive) and the GI50 (XF498) was 1800 nM (inactive).
